Experimental data reported in the supplement of paper PMC8617591.

How the values were obtained:
[1] = tested on: Mycobacterium tuberculosis Erdman (autoluminescent); assay: total FIC50 (Loewe) at 50% inhibition, three-drug combination (log2); higher = more antagonistic
Method: (§1)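 DiaMOND equipotent three-drug combination dose responses (10 doses, 1.5- or 2-fold spacing, centred on IC90) against autoluminescent M. tuberculosis Erdman in 8 in vitro models. Read-out is OD600, or luminescence for the intracellular and dormancy models, normalised to untreated wells. Hill-fit Einf, AUC25 and GRinf are potency metrics; FIC50 and FIC90 are total Loewe fractional inhibitory concentrations as log2 (negative = synergy).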

[2] = tested on: Mycobacterium tuberculosis Erdman (autoluminescent); assay: AUC25, normalised area under dose response up to IC25 (three-drug combination) (fraction (0-1)); higher = more potent at low dose
Method: as §1

[3] = tested on: Mycobacterium tuberculosis Erdman (autoluminescent); assay: GRinf, maximum normalised growth rate inhibition (three-drug combination) (unitless (-1 to 1)); higher = less effect (negative = killing)
Method: as §1

[4] = tested on: Mycobacterium tuberculosis Erdman (autoluminescent); assay: Einf, fitted maximum growth inhibition of three-drug combination (fraction); higher = stronger maximal inhibition
Method: as §1

[5] = tested on: Mycobacterium tuberculosis Erdman (autoluminescent); assay: total FIC90 (Loewe) at 90% inhibition, three-drug combination (log2); higher = more antagonistic
Method: as §1

CC[C@@H](CO)NCCN[C@@H](CC)CO [ethambutol] + O=[N+]([O-])c1cn2c(n1)OC[C@@H](OCc1ccc(OC(F)(F)F)cc1)C2 [pretomanid] + CO[C@H]1/C=C/O[C@@]2(C)Oc3c(C)c(O)c4c(O)c(c(/C=N/N5CCN(C)CC5)c(O)c4c3C2=O)NC(=O)/C(C)=C\C=C\[C@H](C)[C@H](O)[C@@H](C)[C@@H](O)[C@@H](C)[C@H](OC(C)=O)[C@@H]1C [rifampicin]
Conditions	AUC25, [2]	Einf, [4]	GRinf, [3]	total FIC50, [1]	total FIC90, [5]
in vitro model: acidic pH 5.7, time point: constant (~7 days, model-specific)	0.116	0.896	-0.0878	-0.207	–
in vitro model: acidic pH 5.7, time point: terminal (~4-5 doublings, model-specific)	0.0422	0.965	-0.0884	-0.118	-0.7
in vitro model: intracellular J774, time point: constant = terminal	–	0.979	-0.423	–	-2.45

Conditions	AUC25, [2]	Einf, [4]	GRinf, [3]	total FIC50, [1]	total FIC90, [5]
in vitro model: butyrate, time point: constant (~7 days, model-specific)	0.0766	0.908	0.0166	0.153	–
in vitro model: butyrate, time point: terminal (~4-5 doublings, model-specific)	0.075	0.968	-0.0125	-0.0702	-0.43
in vitro model: cholesterol 0.05 mM, time point: constant (~7 days, model-specific)	0.123	0.753	-0.232	0.599	–
in vitro model: cholesterol 0.05 mM, time point: terminal (~4-5 doublings, model-specific)	0.0708	0.852	0.216	0.863	–
in vitro model: cholesterol-high 0.2 mM, time point: constant (~7 days, model-specific)	0.0614	0.857	-0.0797	1.05	–
in vitro model: cholesterol-high 0.2 mM, time point: terminal (~4-5 doublings, model-specific)	0.0471	0.992	-0.568	1.06	0.833
in vitro model: dormancy (butyrate + nitrate, low O2), time point: constant (~7 days, model-specific)	0.102	0.883	0.315	-0.71	–
in vitro model: dormancy (butyrate + nitrate, low O2), time point: terminal (~4-5 doublings, model-specific)	0.085	0.993	-0.16	-0.599	-0.673
in vitro model: standard 7H9 glycerol, time point: constant = terminal	0.0649	0.919	0.0317	-0.222	–
in vitro model: valerate, time point: constant (~7 days, model-specific)	0.0577	0.876	0.0174	0.363	–
in vitro model: valerate, time point: terminal (~4-5 doublings, model-specific)	0.033	0.931	0.0322	0.443	-0.575

CC(=O)NC[C@H]1CN(c2ccc(N3CCOCC3)c(F)c2)C(=O)O1 [linezolid] + COc1c(N2C[C@@H]3CCCN[C@@H]3C2)c(F)cc2c(=O)c(C(=O)O)cn(C3CC3)c12 [moxifloxacin] + CO[C@H]1/C=C/O[C@@]2(C)Oc3c(C)c(O)c4c(O)c(c(/C=N/N5CCN(C)CC5)c(O)c4c3C2=O)NC(=O)/C(C)=C\C=C\[C@H](C)[C@H](O)[C@@H](C)[C@@H](O)[C@@H](C)[C@H](OC(C)=O)[C@@H]1C [rifampicin]
Conditions	AUC25, [2]	Einf, [4]	GRinf, [3]	total FIC50, [1]	total FIC90, [5]
in vitro model: acidic pH 5.7, time point: constant (~7 days, model-specific)	0.0527	0.811	-0.0255	0.498	–
in vitro model: acidic pH 5.7, time point: terminal (~4-5 doublings, model-specific)	0.0717	0.984	-0.147	0.628	0.503
in vitro model: intracellular J774, time point: constant = terminal	–	0.919	-0.103	–	0.656

Conditions	AUC25, [2]	Einf, [4]	GRinf, [3]	total FIC50, [1]	total FIC90, [5]
in vitro model: butyrate, time point: constant (~7 days, model-specific)	0.0848	0.857	0.177	0.137	–
in vitro model: butyrate, time point: terminal (~4-5 doublings, model-specific)	0.0684	0.929	0.128	0.112	0.0683
in vitro model: cholesterol 0.05 mM, time point: constant (~7 days, model-specific)	0.156	0.709	-0.119	0.272	–
in vitro model: cholesterol 0.05 mM, time point: terminal (~4-5 doublings, model-specific)	0.124	0.916	-0.285	4.84	-0.628
in vitro model: cholesterol-high 0.2 mM, time point: constant (~7 days, model-specific)	0.0752	0.889	-0.343	0.731	-0.284
in vitro model: cholesterol-high 0.2 mM, time point: terminal (~4-5 doublings, model-specific)	0.0984	1	-0.901	0.947	0.931
in vitro model: dormancy (butyrate + nitrate, low O2), time point: constant (~7 days, model-specific)	0.0613	0.873	0.239	1.14	0.815
in vitro model: dormancy (butyrate + nitrate, low O2), time point: terminal (~4-5 doublings, model-specific)	0.0476	0.971	-0.0219	0.897	0.88
in vitro model: standard 7H9 glycerol, time point: constant = terminal	0.0568	0.839	0.261	0.691	–
in vitro model: valerate, time point: constant (~7 days, model-specific)	0.0669	0.803	0.0279	0.393	–
in vitro model: valerate, time point: terminal (~4-5 doublings, model-specific)	0.0324	0.928	0.0628	0.609	0.105

COc1nc2ccc(Br)cc2cc1[C@@H](c1ccccc1)[C@@](O)(CCN(C)C)c1cccc2ccccc12 [bedaquiline] + O=[N+]([O-])c1cn2c(n1)OC[C@@H](OCc1ccc(OC(F)(F)F)cc1)C2 [pretomanid] + CO[C@H]1/C=C/O[C@@]2(C)Oc3c(C)c(O)c4c(O)c(c(/C=N/N5CCN(C)CC5)c(O)c4c3C2=O)NC(=O)/C(C)=C\C=C\[C@H](C)[C@H](O)[C@@H](C)[C@@H](O)[C@@H](C)[C@H](OC(C)=O)[C@@H]1C [rifampicin]
Conditions	AUC25, [2]	Einf, [4]	GRinf, [3]	total FIC50, [1]	total FIC90, [5]
in vitro model: acidic pH 5.7, time point: constant (~7 days, model-specific)	0.111	0.938	-0.379	0.68	–
in vitro model: acidic pH 5.7, time point: terminal (~4-5 doublings, model-specific)	0.0826	0.993	-0.38	0.724	0.613
in vitro model: intracellular J774, time point: constant = terminal	–	0.978	-0.416	–	-0.222

Conditions	AUC25, [2]	Einf, [4]	GRinf, [3]	total FIC50, [1]	total FIC90, [5]
in vitro model: butyrate, time point: constant (~7 days, model-specific)	0.106	0.931	-0.0326	0.367	0.71
in vitro model: butyrate, time point: terminal (~4-5 doublings, model-specific)	0.0986	0.977	-0.041	0.237	0.69
in vitro model: cholesterol 0.05 mM, time point: constant (~7 days, model-specific)	0.116	0.764	-0.188	0.697	–
in vitro model: cholesterol 0.05 mM, time point: terminal (~4-5 doublings, model-specific)	0.0763	0.813	0.0382	0.812	-0.454
in vitro model: cholesterol-high 0.2 mM, time point: constant (~7 days, model-specific)	0.0584	0.921	-0.229	1.22	1.66
in vitro model: cholesterol-high 0.2 mM, time point: terminal (~4-5 doublings, model-specific)	0.0574	1	-0.652	1.17	0.914
in vitro model: dormancy (butyrate + nitrate, low O2), time point: constant (~7 days, model-specific)	0.0611	0.9	0.255	0.0572	-0.559
in vitro model: dormancy (butyrate + nitrate, low O2), time point: terminal (~4-5 doublings, model-specific)	0.0439	0.982	-0.104	0.00851	-0.259
in vitro model: standard 7H9 glycerol, time point: constant = terminal	0.0794	0.937	-0.1	0.14	-0.371
in vitro model: valerate, time point: constant (~7 days, model-specific)	0.103	0.897	-0.11	1.04	–
in vitro model: valerate, time point: terminal (~4-5 doublings, model-specific)	0.0424	0.951	-0.0825	1.09	0.566
